# Results reported in patent US10813972B2, “Treatment of DNA damage and mitochondrial dysfunction using palm fruit juice” (BRANDEIS UNIVERSITY, priority 2013, dated 2020).
# Test system: mitochondrial DNA (HV2, CO2, ND1) of HepG2 cells
# Assay: mtDNA mutational load in HepG2 cells grown 30 days with INH or INH+PFJ (multiplex LATE-PCR/Lights On-Lights Off assay)
# Assay type: cell-based, human
# Conditions: 88 μM INH, HepG2, 30 days
# Procedure: A liver carcinoma cell line (HepG2 cells, ATCC, Manassas, Va.) was grown for 30 days in the presence of either 88 μM INH (Sigma, St. Louis, Mo.) or 88 μM INH+50 μg/ml gallic acid equivalents (GAE) PFJ. A culture without these additives served as a non-treated control. Cells were grown in Eagle's Minimum Essential Medium (ATCC Manassas, Va.). The media were supplemented with 25 mM HEPES, 10% fetal bovine serum (BioWest), 50 units/mL Penicillin G, 50 units/mL Streptomycin, and 0.25 μg Amphotericin B (HyClone Antibiotic/Antimycotic Solution 100×) in 6-well plates at 37° C. and 5% CO2. The media and additives were replenished every other day. The cells were passaged as per ATCC's instructions at an initial density of 1×10^5 cells/ml.
# At the end of the culture period, each HepG2 culture was tripsinized, spun at 100×g for 15 min at 4° C. and resuspended in Dulbecco's phosphate buffer solution (Sigma, St. Louis, Mo.) at a concentration of 1×10^3 cells/ml. DNA from these cultures was extracted by placing 5 μl of cell suspension into 32.5 μl volume of a lysis buffer containing 100 μg/ml proteinase K, 10 mM Tris-Cl pH 8.3, and 5 μM SDS (sodium-dodecyl-sulfate) and heating to 50° C. for 2 hours followed by 95° C. for 15 minutes. The samples were then stored at −20° C. […]
smiles,measurement,value
"NNC(=O)c1ccncc1 [INH, isoniazid]",mtDNA mutational load (fluorescent signature changes indicative of mitochondrial DNA mutations),increases mtDNA mutational load
